How the values were obtained:
[1] = target: human HSP90 alpha protein (HSP90 N-terminal protein, amino acids 2-236) (Homo sapiens (Human), UniProt P07900); experiment: Measurement of HSP90-binding activity (AlphaScreen competitive assay, biotin-labeled geldanamycin); conditions: concentration inhibiting binding of biotin-labeled geldanamycin (40 nM) to purified HSP90 to 50% of control; read-out: HSP-binding activity IC50
SK-BR-3 cells = experiment: Measurement of cell growth inhibition (crystal violet staining method); type: cell-based; conditions: breast cancer SK-BR-3 cells, 72 hr culture with test substance

CCc1cc(C(N)=O)ccc1-n1nc(C(C)C)c2c(-n3cnc(-c4cccnc4)c3)ccnc21 [Example 136, 3-Ethyl-4-{3-isopropyl-4-(4-(pyridin-3-yl)-1H-imidazol-1-yl)-1H-pyrazolo[3,4-b]pyridin-1-yl}benzamide]
IC50 [1]: 130 nM | IC50 (SK-BR-3 cells; Homo sapiens): 270 nM

CCNc1cc(-n2nc(C(C)C)c3c(-n4cnc(-c5cnn(C(F)F)c5)c4)ccnc32)ccc1C(N)=O [Example 147, 4-{4-(4-(1-(Difluoromethyl)-1H-pyrazol-4-yl)-1H-imidazol-1-yl)-3-isopropyl-1H-pyrazolo[3,4-b]pyridin-1-yl}-2-(ethylamino)benzamide]
IC50 [1]: 810 nM | IC50 (SK-BR-3 cells; Homo sapiens): 360 nM

Cc1cn(-c2ccc(C(N)=O)c(N[C@H]3CC[C@H](O)CC3)c2)c2nccc(-c3cnc4ccccc4c3)c12 [Example 40, 2-(Trans-4-hydroxycyclohexylamino)-4-{3-methyl-4-(quinolin-3-yl)-1H-pyrrolo[2,3-b]pyridin-1-yl}benzamide]
IC50 [1]: 270 nM | IC50 (SK-BR-3 cells; Homo sapiens): 90 nM

CCc1cc(C(N)=O)ccc1-n1nc(C(C)C)c2c(-n3cnc(-c4cnn(C)c4)c3)ccnc21 [Example 102, 3-Ethyl-4-{3-isopropyl-4-(4-(1-methyl-1H-pyrazol-4-yl)-1H-imidazol-1-yl)-1H-pyrazolo[3,4-b]pyridin-1-yl}benzamide]
IC50 [1]: 210 nM | IC50 (SK-BR-3 cells; Homo sapiens): 170 nM

CC(C)Nc1cc(-n2nc(C(C)C)c3c(-n4cnc(-c5cn[nH]c5)c4)ccnc32)ccc1C(N)=O [Example 143, 4-{4-(4-(1H-Pyrazol-4-yl)-1H-imidazol-1-yl)-3-isopropyl-1H-pyrazolo[3,4-b]pyridin-1-yl}-2-(isopropylamino)benzamide]
IC50 [1]: 170 nM | IC50 (SK-BR-3 cells; Homo sapiens): 30 nM

CC(C)c1nn(-c2ccc(C(N)=O)c(NCc3ccccc3)c2)c2nccc(-c3cnc4ccccc4c3)c12 [Example 20, 2-(Benzylamino)-4-{3-isopropyl-4-(quinolin-3-yl)-1H-pyrazolo[3,4-b]pyridin-1-yl}benzamide]
IC50 [1]: 3050 nM | IC50 (SK-BR-3 cells; Homo sapiens): 670 nM

CCNc1cc(C(N)=O)ccc1-n1nc(C(F)(F)F)c2c(-n3cnc(-c4cnn(C(C)C)c4)c3)ccnc21 [Example 187, 3-(Ethylamino)-4-{4-(4-(1-isopropyl-1H-pyrazol-4-yl)-1H-imidazol-1-yl)-3-(trifluoromethyl)-1H-pyrazolo[3,4-b]pyridin-1-yl}benzamide]
IC50 [1]: 620 nM | IC50 (SK-BR-3 cells; Homo sapiens): 710 nM

CC(C)c1nn(-c2ccc(C(N)=O)c(N[C@H]3CC[C@H](O)CC3)c2)c2nccc(-n3cnc(-c4ccccc4)c3)c12 [Example 37, 2-(Trans-4-hydroxycyclohexylamino)-4-{3-isopropyl-4-(4-phenyl-1H-imidazol-1-yl)-1H-pyrazolo[3,4-b]pyridin-1-yl}benzamide]
IC50 [1]: 250 nM | IC50 (SK-BR-3 cells; Homo sapiens): 100 nM

Cc1c(-n2nc(C(C)C)c3c(-n4cnc(-c5cnn(C)c5)c4)ccnc32)ccc(C(N)=O)c1F [Example 130, 2-Fluoro-4-{3-isopropyl-4-(4-(1-methyl-1H-pyrazol-4-yl)-1H-imidazol-1-yl)-1H-pyrazolo[3,4-b]pyridin-1-yl}-3-methylbenzamide]
IC50 [1]: 690 nM | IC50 (SK-BR-3 cells; Homo sapiens): 1890 nM

C=Cc1cc(C(N)=O)ccc1-n1nc(C(C)C)c2c(-n3cnc(-c4cnn(C)c4)c3)ccnc21 [Example 101, 4-{3-Isopropyl-4-(4-(1-methyl-1H-pyrazol-4-yl)-1H-imidazol-1-yl)-1H-pyrazolo[3,4-b]pyridin-1-yl}-3-vinylbenzamide]
IC50 [1]: 220 nM | IC50 (SK-BR-3 cells; Homo sapiens): 290 nM

NC(=O)c1ccc(-n2ccc3ccccc32)c(Cl)c1 [Comparative Example 6, reference compound]
IC50 [1]: > 100000 nM | IC50 (SK-BR-3 cells; Homo sapiens): > 10000 nM

Cn1cc(-c2cn(-c3ccnc4c3c(C(F)(F)F)nn4-c3ccc(C(N)=O)cc3F)cn2)cn1 [Example 171, 3-Fluoro-4-{4-(4-(1-methyl-1H-pyrazol-4-yl)-1H-imidazol-1-yl)-3-(trifluoromethyl)-1H-pyrazolo[3,4-b]pyridin-1-yl}benzamide]
IC50 [1]: 100 nM | IC50 (SK-BR-3 cells; Homo sapiens): 130 nM

C=Cc1cn(-c2ccc(C(N)=O)c(N[C@H]3CC[C@H](O)CC3)c2)c2nccc(-c3cnc4ccccc4c3)c12 [Example 46, 2-(Trans-4-hydroxycyclohexylamino)-4-{3-vinyl-4-(quinolin-3-yl)-1H-pyrrolo[2,3-b]pyridin-1-yl}benzamide]
IC50 [1]: 150 nM | IC50 (SK-BR-3 cells; Homo sapiens): 20 nM

CCNCCNc1cc(-n2cc(CC)c3c(-c4cnc5ccccc5c4)ccnc32)ccc1C(N)=O [Example 75, 4-{3-Ethyl-4-(quinolin-3-yl)-1H-pyrrolo[2,3-b]pyridin-1-yl}-2-{2-(ethylamino)ethylamino}benzamide]
IC50 [1]: 310 nM | IC50 (SK-BR-3 cells; Homo sapiens): 240 nM

CC(C)c1cc(C(N)=O)ccc1-n1nc(C(C)C)c2c(-n3cnc(-c4cccnc4)c3)ccnc21 [Example 137, 3-Isopropyl-4-{3-isopropyl-4-(4-(pyridin-3-yl)-1H-imidazol-1-yl)-1H-pyrazolo[3,4-b]pyridin-1-yl}benzamide]
IC50 [1]: 280 nM | IC50 (SK-BR-3 cells; Homo sapiens): 430 nM

CC(C)c1nn(-c2ccc(C(N)=O)c(N[C@H]3CC[C@H](O)CC3)c2)c2nccc(-c3cnc4c(c3)CCCC4)c12 [Example 19, 2-(Trans-4-hydroxycyclohexylamino)-4-{3-isopropyl-4-(5,6,7,8-tetrahydroquinolin-3-yl)-1H-pyrazolo[3,4-b]pyridin-1-yl}benzamide]
IC50 [1]: 1190 nM | IC50 (SK-BR-3 cells; Homo sapiens): 470 nM

COc1cncc(-c2ccnc3c2c(C(C)C)nn3-c2ccc(C(N)=O)c(N[C@H]3CC[C@H](O)CC3)c2)c1 [Example 11, 2-(Trans-4-hydroxycyclohexylamino)-4-{3-isopropyl-4-(5-methoxypyridin-3-yl)-1H-pyrazolo[3,4-b]pyridin-1-yl}benzamide]
IC50 [1]: 550 nM | IC50 (SK-BR-3 cells; Homo sapiens): 160 nM

CC(C)c1nn(-c2ccc(C(N)=O)cc2CN(C)C)c2nccc(-n3cnc(-c4cnn(C)c4)c3)c12 [Example 126, 3-{(Dimethylamino)methyl}-4-{3-isopropyl-4-(4-(1-methyl-1H-pyrazol-4-yl)-1H-imidazol-1-yl)-1H-pyrazolo[3,4-b]pyridin-1-yl}benzamide]
IC50 [1]: 230 nM | IC50 (SK-BR-3 cells; Homo sapiens): 1130 nM

NC(=O)c1ccc(-n2nc(C(F)(F)F)c3c(-c4cnc5ccccc5c4)ccnc32)cc1N[C@H]1CC[C@H](O)CC1 [Example 1, 2-(Trans-4-hydroxycyclohexylamino)-4-{4-(quinolin-3-yl)-3-(trifluoromethyl)-1H-pyrazolo[3,4-b]pyridin-1-yl}benzamide]
IC50 [1]: 120 nM | IC50 (SK-BR-3 cells; Homo sapiens): 20 nM

CC(C)c1nn(-c2ccc(C(N)=O)c(NC3CCC(O)CC3)c2)c2nccc(-n3cnc(-c4cnn(CO)c4)c3)c12 (stereo not shown) [Example 96, 2-(4-Hydroxycyclohexylamino)-4-{4-(4-(1-hydroxymethyl)-(1H-pyrazol-4-yl)-1H-imidazol-1-yl)-3-isopropyl-1H-pyrazolo[3,4-b]pyridin-1-yl}benzamide]
IC50 [1]: 60 nM | IC50 (SK-BR-3 cells): 60 nM

CCNc1cc(C(N)=O)ccc1-n1nc(C(F)(F)F)c2c(-n3cnc(-c4cnn(CC)c4)c3)ccnc21 [Example 185, 4-{4-(4-(1-Ethyl-1H-pyrazol-4-yl)-1H-imidazol-1-yl)-3-(trifluoromethyl)-1H-pyrazolo[3,4-b]pyridin-1-yl}-3-(ethylamino)benzamide]
IC50 [1]: 190 nM | IC50 (SK-BR-3 cells; Homo sapiens): 210 nM

Cn1cc(-c2cn(-c3ccnc4c3c(C(F)(F)F)nn4-c3ccc(C(N)=O)cc3-c3ccccc3)cn2)cn1 [Example 172, 6-{4-(4-(1-Methyl-1H-pyrazol-4-yl)-1H-imidazol-1-yl)-3-(trifluoromethyl)-1H-pyrazolo[3,4-b]pyridin-1-yl}biphenyl-3-carboxamide]
IC50 [1]: 1070 nM | IC50 (SK-BR-3 cells; Homo sapiens): 870 nM

CC(C)c1nn(-c2ccc(C(N)=O)cc2Cl)c2nccc(-c3cnc4ccccc4c3)c12 [Example 38, 3-Chloro-4-{3-isopropyl-4-(quinolin-3-yl)-1H-pyrazolo[3,4-b]pyridin-1-yl}benzamide]
IC50 [1]: 510 nM | IC50 (SK-BR-3 cells; Homo sapiens): 670 nM

CSCCCNc1cc(-n2nc(C(C)C)c3c(-c4cnc5ccccc5c4)ccnc32)ccc1C(N)=O [Example 23, 4-{3-Isopropyl-4-(quinolin-3-yl)-1H-pyrazolo[3,4-b]pyridin-1-yl}-2-{3-(methylthio)propylamino}benzamide]
IC50 [1]: 490 nM | IC50 (SK-BR-3 cells; Homo sapiens): 190 nM

Cc1cc(-n2nc(C(C)C)c3c(-c4cnc5ccccc5c4)ccnc32)ccc1C(N)=O [Example 81, 4-{3-Isopropyl-4-(quinolin-3-yl)-1H-pyrazolo[3,4-b]pyridin-1-yl}-2-methylbenzamide]
IC50 [1]: 1030 nM | IC50 (SK-BR-3 cells; Homo sapiens): 630 nM

CC(C)c1nn(-c2ccc(C(N)=O)c(NCCN3CCCC3)c2)c2nccc(-c3cnc4ccccc4c3)c12 [Example 22, 4-{3-Isopropyl-4-(quinolin-3-yl)-1H-pyrazolo[3,4-b]pyridin-1-yl}-2-{2-(pyrrolidin-1-yl)ethylamino}benzamide]
IC50 [1]: 180 nM | IC50 (SK-BR-3 cells; Homo sapiens): 160 nM

CC(C)c1nn(-c2ccc(C(N)=O)cc2C2CC2)c2nccc(-n3cnc(-c4cccnc4)c3)c12 [Example 138, 3-Cyclopropyl-4-{3-isopropyl-4-(4-(pyridin-3-yl)-1H-imidazol-1-yl)-1H-pyrazolo[3,4-b]pyridin-1-yl}benzamide]
IC50 [1]: 190 nM | IC50 (SK-BR-3 cells; Homo sapiens): 530 nM

CCc1cn(-c2ccc(C(N)=O)c(NCCN3CCOCC3)c2)c2nccc(-c3cnc4ccccc4c3)c12 [Example 73, 4-{3-Ethyl-4-(quinolin-3-yl)-1H-pyrrolo[2,3-b]pyridin-1-yl}-2-(2-morpholinoethylamino)benzamide]
IC50 [1]: 590 nM | IC50 (SK-BR-3 cells; Homo sapiens): 360 nM

CC(C)c1nn(-c2ccc(C(N)=O)c(NC3CCC(O)CC3)c2)c2nccc(-n3cnc(-c4cn[nH]c4)c3)c12 (stereo not shown) [Example 95, 4-{4-(4-(1H-Pyrazol-4-yl)-1H-imidazol-1-yl)-3-isopropyl-1H-pyrazolo[3,4-b]pyridin-1-yl}-2-(4-hydroxycyclohexylamino)benzamide]
IC50 [1]: 60 nM | IC50 (SK-BR-3 cells; Homo sapiens): 20 nM

Source: patent publication US8779142B2, “Azabicyclo compound and salt thereof” (Taiho Pharmaceutical Co., Ltd., priority 2009, dated 2014)
